Inconclusive results and toxic doses are left out.
Tested on: L1210 leukemia ip in BDF1 mice, survival T/C
Experiment: NCI In Vivo Anticancer Drug Screen. Data for tumor model L1210 Leukemia (intraperitoneal) in B6D2F1 (BDF1) mice
Details: endpoint: mean survival time, higher = longer survival
Summary of the method: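 Value reflects the ratio of survival in compound-treated mice to survival in vehicle-treated controls, with both groups carrying the same transplanted tumor.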

[1] = dose: 100.0 mg/kg/injection, schedule: Q04DX003 (ip), vehicle: Klucel (hydroxypropylcellulose) (HPC)
[2] = dose: 200.0 mg/kg/injection, schedule: Q04DX003 (ip), vehicle: Klucel (hydroxypropylcellulose) (HPC)
[3] = dose: 100.0 mg/kg/injection, schedule: Q04DX003 (ip), vehicle: saline
[4] = dose: 200.0 mg/kg/injection, schedule: Q04DX003 (ip), vehicle: saline
[5] = dose: 400.0 mg/kg/injection, schedule: Q04DX003 (ip), vehicle: saline
[6] = dose: 200.0 mg/kg/injection, schedule: Q01DX001 (ip), vehicle: saline
[7] = dose: 400.0 mg/kg/injection, schedule: Q01DX001 (ip), vehicle: saline
[8] = dose: 100.0 mg/kg/injection, schedule: Q04DX003 (ip), vehicle: saline with Tween-80
[9] = dose: 200.0 mg/kg/injection, schedule: Q04DX003 (ip), vehicle: saline with Tween-80
[10] = dose: 100.0 mg/kg/injection, schedule: Q01DX001 (ip), vehicle: saline

## CCNC(=NC)c1ccc(NC(=O)c2ccc(C(=O)Nc3ccc(C(=NC)NCC)cc3)cc2)cc1
dose: 1.3 mg/kg/injection, schedule: Q01DX Z (ip), vehicle: carboxymethylcellulose (CMC)
  T/C: 98 % of control
dose: 1.9 mg/kg/injection, schedule: Q01DX Z (ip), vehicle: carboxymethylcellulose (CMC)
  T/C: 96 % of control
dose: 2.9 mg/kg/injection, schedule: Q01DX Z (ip), vehicle: carboxymethylcellulose (CMC)
  T/C: 153 % of control
dose: 4.4 mg/kg/injection, schedule: Q01DX Z (ip), vehicle: carboxymethylcellulose (CMC)
  T/C: 119 % of control
dose: 6.6 mg/kg/injection, schedule: Q01DX Z (ip), vehicle: carboxymethylcellulose (CMC)
  T/C: 116 % of control
dose: 10.0 mg/kg/injection, schedule: Q01DX Z (ip), vehicle: carboxymethylcellulose (CMC)
  T/C: 110 % of control
dose: 15.0 mg/kg/injection, schedule: Q01DX Z (ip), vehicle: carboxymethylcellulose (CMC)
  T/C: 98 % of control

## CCOC(=O)c1cnc(C)nc1Nc1ccccc1F
[1]
  T/C: 105 % of control
[2]
  T/C: 104 % of control

## Nc1nc(SCC(=O)c2ccc(F)cc2)sc1C(=O)c1ccc(F)cc1
dose: 100.0 mg/kg/injection, schedule: Q04DX002 (ip), vehicle: Klucel (hydroxypropylcellulose) (HPC)
  T/C: 100 % of control
dose: 200.0 mg/kg/injection, schedule: Q04DX002 (ip), vehicle: Klucel (hydroxypropylcellulose) (HPC)
  T/C: 112 % of control
dose: 400.0 mg/kg/injection, schedule: Q04DX002 (ip), vehicle: Klucel (hydroxypropylcellulose) (HPC)
  T/C: 100 % of control

## N/C(Cc1ccc(Cl)cc1)=N/O
[1]
  T/C: 104 % of control
[2]
  T/C: 102 % of control

## CCOCCc1ccccn1
dose: 100.0 mg/kg/injection, schedule: Q01DX009 (ip), vehicle: saline
  T/C: 113 % of control
[3]
  T/C: 103 % of control
dose: 200.0 mg/kg/injection, schedule: Q01DX009 (ip), vehicle: saline
  T/C: 100 % of control
[4]
  T/C: 103 % of control
dose: 400.0 mg/kg/injection, schedule: Q01DX009 (ip), vehicle: saline
  T/C: 96 % of control
[5]
  T/C: 101 % of control

## c1ccc([Si](c2ccccc2)(c2cccs2)c2cccs2)cc1
dose: 100.0 mg/kg/injection, schedule: Q01DX009 (ip), vehicle: saline with Tween-80
  T/C: 103 % of control
dose: 200.0 mg/kg/injection, schedule: Q01DX009 (ip), vehicle: saline with Tween-80
  T/C: 95 % of control

## COc1cc2c3c(c1)-c1c(ccc(OC)c1O)CC3N(C)CC2 (stereo not given)
dose: 25.0 mg/kg/injection, schedule: Q04DX003 (ip), vehicle: DMSO
  T/C: 93 % of control
dose: 50.0 mg/kg/injection, schedule: Q04DX003 (ip), vehicle: DMSO
  T/C: 91 % of control
dose: 100.0 mg/kg/injection, schedule: Q04DX003 (ip), vehicle: DMSO
  T/C: 91 % of control

## CN1CSC(=S)N(Cc2ccccc2)C1
dose: 100.0 mg/kg/injection, schedule: Q04DX002 (ip), vehicle: saline with Tween-80
  T/C: 94 % of control
dose: 200.0 mg/kg/injection, schedule: Q04DX002 (ip), vehicle: saline with Tween-80
  T/C: 97 % of control
dose: 400.0 mg/kg/injection, schedule: Q04DX002 (ip), vehicle: saline with Tween-80
  T/C: 105 % of control

## COc1cc(Cc2nccc3cc(OC)c(OC)cc23)c(C(C)=O)cc1OC
dose: 0.9 mg/kg/injection, schedule: Q03HX024 (ip), vehicle: saline
  T/C: 98 % of control
dose: 1.8 mg/kg/injection, schedule: Q03HX024 (ip), vehicle: saline
  T/C: 97 % of control
dose: 2.9 mg/kg/injection, schedule: Q01DX Z (ip), vehicle: saline
  T/C: 107 % of control
dose: 3.5 mg/kg/injection, schedule: Q03HX024 (ip), vehicle: saline
  T/C: 107 % of control
dose: 4.4 mg/kg/injection, schedule: Q01DX Z (ip), vehicle: saline
  T/C: 111 % of control
dose: 6.6 mg/kg/injection, schedule: Q01DX Z (ip), vehicle: saline
  T/C: 115 % of control
dose: 7.0 mg/kg/injection, schedule: Q03HX024 (ip), vehicle: saline
  T/C: 111 % of control
dose: 7.0 mg/kg/injection, schedule: Q04DX003 (ip), vehicle: saline
  T/C: 97 % of control
dose: 10.0 mg/kg/injection, schedule: Q01DX Z (ip), vehicle: saline
  T/C: 119 % of control
dose: 14.0 mg/kg/injection, schedule: Q04DX003 (ip), vehicle: saline
  T/C: 104 % of control
dose: 22.0 mg/kg/injection, schedule: Q01DX009 (ip), vehicle: saline
  T/C: 121 % of control
dose: 28.0 mg/kg/injection, schedule: Q04DX003 (ip), vehicle: saline
  T/C: 120 % of control
dose: 33.0 mg/kg/injection, schedule: Q01DX009 (ip), vehicle: saline
  T/C: 109 % of control
dose: 35.0 mg/kg/injection, schedule: Q01DX009 (ip), vehicle: saline
  T/C: 121 % of control
dose: 50.0 mg/kg/injection, schedule: Q01DX009 (ip), vehicle: saline
  T/C: 154 % of control
dose: 56.0 mg/kg/injection, schedule: Q04DX003 (ip), vehicle: saline
  T/C: 118 % of control
dose: 75.0 mg/kg/injection, schedule: Q01DX009 (ip), vehicle: saline
  T/C: 108 % of control
dose: 75.0 mg/kg/injection, schedule: Q01DX Z (ip), vehicle: saline
  T/C: 93 % of control

## C/C(=N/NC(N)=S)c1ccco1
[6]
  T/C: 119 % of control
[7]
  T/C: 102 % of control

## CC(C)CC(C)NCC(C)O (stereo not given)
dose: 75.0 mg/kg/injection, schedule: Q01DX001 (ip), vehicle: acid diluted with saline
  T/C: 100 % of control
dose: 150.0 mg/kg/injection, schedule: Q01DX001 (ip), vehicle: acid diluted with saline
  T/C: 100 % of control

## CC(C)=CCC(CCN1CCCC1)(C(N)=O)c1cccc2ccccc12 (stereo not given)
dose: 5.0 mg/kg/injection, schedule: Q01DX009 (ip), vehicle: Klucel (hydroxypropylcellulose) (HPC)
  T/C: 102 % of control
dose: 5.0 mg/kg/injection, schedule: Q04DX003 (ip), vehicle: Klucel (hydroxypropylcellulose) (HPC)
  T/C: 98 % of control
dose: 10.0 mg/kg/injection, schedule: Q01DX009 (ip), vehicle: Klucel (hydroxypropylcellulose) (HPC)
  T/C: 95 % of control
dose: 10.0 mg/kg/injection, schedule: Q04DX003 (ip), vehicle: Klucel (hydroxypropylcellulose) (HPC)
  T/C: 104 % of control
dose: 20.0 mg/kg/injection, schedule: Q01DX009 (ip), vehicle: Klucel (hydroxypropylcellulose) (HPC)
  T/C: 98 % of control
dose: 20.0 mg/kg/injection, schedule: Q04DX003 (ip), vehicle: Klucel (hydroxypropylcellulose) (HPC)
  T/C: 104 % of control

## O=C1CCc2c1cc(O)c1ccc(S(=O)(=O)O)cc21
dose: 5.0 mg/kg/injection, schedule: Q01DX001 (ip), vehicle: saline
  T/C: 104 % of control
dose: 10.0 mg/kg/injection, schedule: Q01DX001 (ip), vehicle: saline
  T/C: 106 % of control
dose: 20.0 mg/kg/injection, schedule: Q01DX001 (ip), vehicle: saline
  T/C: 104 % of control
dose: 40.0 mg/kg/injection, schedule: Q01DX001 (ip), vehicle: saline
  T/C: 102 % of control

## O=S(=O)(CCO)c1ccc2ccccc2c1
dose: 100.0 mg/kg/injection, schedule: Q01DX001 (ip), vehicle: Klucel (hydroxypropylcellulose) (HPC)
  T/C: 101 % of control
[1]
  T/C: 101 % of control
dose: 200.0 mg/kg/injection, schedule: Q01DX001 (ip), vehicle: Klucel (hydroxypropylcellulose) (HPC)
  T/C: 98 % of control
[2]
  T/C: 97 % of control
dose: 400.0 mg/kg/injection, schedule: Q01DX001 (ip), vehicle: Klucel (hydroxypropylcellulose) (HPC)
  T/C: 98 % of control
dose: 400.0 mg/kg/injection, schedule: Q04DX003 (ip), vehicle: Klucel (hydroxypropylcellulose) (HPC)
  T/C: 105 % of control

## O=C(O)c1c(O)cc(O)cc1O
[8]
  T/C: 95 % of control
[9]
  T/C: 95 % of control

## COc1ccc(C(C)S(=O)(=O)c2ccc(C)cc2)cc1OC (stereo not given)
dose: 100.0 mg/kg/injection, schedule: Q01DX001 (ip), vehicle: carboxymethylcellulose (CMC)
  T/C: 97 % of control
dose: 200.0 mg/kg/injection, schedule: Q01DX001 (ip), vehicle: carboxymethylcellulose (CMC)
  T/C: 97 % of control
dose: 400.0 mg/kg/injection, schedule: Q01DX001 (ip), vehicle: carboxymethylcellulose (CMC)
  T/C: 94 % of control

## COc1ccc2c(c1)N(C)CCCC2=O
[3]
  T/C: 96 % of control
[4]
  T/C: 112 % of control
[5]
  T/C: 87 % of control

## CC(=O)Nc1ccc(NS(=O)(=O)O)cc1
dose: 50.0 mg/kg/injection, schedule: Q01DX001 (ip), vehicle: saline
  T/C: 96 % of control
[10]
  T/C: 96 % of control
[6]
  T/C: 93 % of control
[7]
  T/C: 96 % of control

## COc1ccc(-c2cnc(C(N)=O)c(=O)[nH]2)cc1
[8]
  T/C: 88 % of control
[9]
  T/C: 95 % of control
dose: 400.0 mg/kg/injection, schedule: Q04DX003 (ip), vehicle: saline with Tween-80
  T/C: 91 % of control

## CCC(=O)c1cc2c(c3c1CCCC3)CCCC2
dose: 200.0 mg/kg/injection, schedule: Q01DX009 (ip), vehicle: other
  T/C: 90 % of control

## Cn1c(=O)c2[nH]c(CCCSSCCCc3nc4c([nH]3)c(=O)n(C)c(=O)n4C)nc2n(C)c1=O
[10]
  T/C: 96 % of control
[6]
  T/C: 96 % of control
[7]
  T/C: 96 % of control
